Reference: patent US20240392302A1, “METHOD FOR DETECTING AND QUANTIFYING RNA” (FLUORESCENCE DIAGNOSIS (SHANGHAI) BIOTECH COMPANY LTD., priority 2021, published 2024)

Test system: F30-N16-1 RNA aptamer molecules
Assay: Binding of F30-N16-1 RNA aptamer molecules with different fluorescent molecules (fluorescence spectrum, activation multiple)
Type: biochemical
Conditions: for Maximum emission peak (nm) / Maximum excitation peak (nm): complex with F30-N16-1; for Activation Multiple: fluorophore with F30-N16-1
Protocol: Nucleic acid aptamer molecules of N16 or N16 mutants were prepared by using the commonly-used experimental method (I), 2.5 μM of nucleic acid aptamer molecules and 0.5 μM of fluorophore molecules were incubated in a detection buffer (40 mM of HEPES, pH 7.4, 125 mM of KCl, 5 mM of MgCl2, 5% DMSO), and the maximum excitation peak and the maximum emission peak of the fluorescence of the nucleic acid aptamer-fluorophore molecular complex were detected with Synergy Neo2 multifunctional enzyme-labeler. Synergy Neo2 multifunctional enzyme-labeler was used again to detect fluorescence intensity of the nucleic acid aptamer-fluorophore molecular complex under its maximum excitation and emission conditions, the control sample ([…] of fluorophore molecules without nucleic acid aptamer) was also measured under the same conditions, and the ratio of fluorescence intensity was calculated. For example, as for fluorescence of the complex formed by 2.5 μM of N16-1 nucleic acid aptamer and 0.5 μM of I-5-14 fluorophore molecules, the maximum excitation peak is 512 nm and the maximum emission peak is 574 nm. It was detected by the Synergy Neo2 multifunctional enzyme-labeler that the fluorescence intensity of the complex at an excitation condition of 512±10 nm and an emission condition of 574 nm±10 nm was 49,088, while the fluorescence intensity of the control (0.5 μM of I-5-14 fluorophore molecules) under the same detection conditions was 399, so the activation multiple of N16-1 nucleic acid aptamer to I-5-14 fluorophore molecules was 123.
F30-N16-1 RNA aptamer molecules were prepared by using the commonly-used experimental method (I), and were used for detecting basic properties, including fluorescence spectrum and fluorescence activation multiple, of the binding of I-5-14 analogues with N16.

| Maximum emission peak (nm) | Maximum excitation peak (nm) | Activation Multiple | Compound |
| --- | --- | --- | --- |
| 627 | 513 | 14 | CN(CCO)c1cc2sc(/C=C3\OC(=O)NC3=O)cc2s1 [I-5-55] |
| 627 | 568 | 12 | CN(CCO)c1cc2sc(/C=C3\SC(=O)NC3=S)cc2s1 [I-5-56] |
| 647 | 579 | 1279 | CN(CCO)c1cc2sc(/C=C3\SC(=S)NC3=O)cc2s1 [I-5-57] |
| 725 | 692 | 1422 | CN(CCO)c1cc2sc(/C=C3\SC(=S)NC3=S)cc2s1 [I-5-58] |
| 655 | 581 | 12 | CN1C(=O)/C(=C/c2cc3sc(N(CCO)CCO)cc3s2)SC1=S [I-5-59] |
| 626 | 552 | 8 | CN1C(=O)/C(=C/c2cc3sc(N(CCO)CCO)cc3s2)NC1=S [I-5-60] |
| 677 | 483 | 6 | CN(CCO)c1ccc(-c2ccc(/C=C3\SC(=S)NC3=O)s2)cc1 [I-5-61] |
| 689 | 529 | 256 | CN(CCO)c1ccc(-c2ccc(/C=C3\SC(=O)NC3=O)s2)s1 [I-5-62] |
| 673 | 521 | 6 | CN1C(=O)/C(=C/c2ccc(-c3ccc(N(C)CCO)s3)cc2)NC1=S [I-5-63] |
| 665 | 522 | 12 | CN(CCO)c1ccc2cc(/C=C3\SC(=S)NC3=O)sc2c1 [I-5-64] |
| 605 | 462 | 35 | CN(CCO)c1ccc2cc(/C=C3\SC(=O)NC3=O)sc2c1 [I-5-65] |
| 748 | 666 | 81 | CN(CCO)c1ccc2cc(/C=C3\SC(=S)NC3=S)sc2c1 [I-5-66] |
| 652 | 516 | 7 | CN(C)c1ccc2cc(/C=C3\NC(=S)NC3=O)sc2c1 [I-5-67] |
| 663 | 536 | 9 | CN1C(=O)/C(=C/c2cc3ccc(N(CCO)CCO)cc3s2)SC1=S [I-5-68] |
| 661 | 531 | 11 | CN(CCO)c1ccc2nc(/C=C3\NC(=S)NC3=O)sc2c1 [I-5-69] |
| 686 | 556 | 12 | CN(CCO)c1ccc2nc(/C=C3\SC(=S)N(CCC(=O)O)C3=O)sc2c1 [I-5-70] |
| 627 | 471 | 6 | CN1C(=O)S/C(=C\c2nc3ccc(N(C)CCO)cc3s2)C1=O [I-5-71] |
| 721 | 636 | 14 | Nc1ccc2nc(/C=C3\SC(=S)NC3=S)sc2c1 [I-5-72] |
| 731 | 681 | 12 | CC1(C)c2cc(/C=C3\SC(=S)NC3=O)ccc2-c2ccc(N(CCO)CCO)cc21 [I-5-73] |
| 691 | 635 | 14 | CN(C)c1ccc2c(c1)C(C)(C)c1cc(/C=C3\SC(=O)NC3=O)ccc1-2 [I-5-74] |
| 791 | 741 | 7 | CN(CCO)c1ccc2c(c1)C(C)(C)c1cc(/C=C3\SC(=S)NC3=S)ccc1-2 [I-5-75] |
